{"source": "patent US7772383B2", "about": "“Chemical PCR: Compositions for enhancing polynucleotide amplification reactions” (The Trustees of Princeton University, priority 2002, dated 2010)", "format_in_all_cases": "biochemical", "key": {"[1]": {"biological_target": "T1, Taq polymerase (Thermus aquaticus, UniProt P19821)", "T1 construct": "purchased Stratagene", "T1 sequence (P19821 whole entry)": "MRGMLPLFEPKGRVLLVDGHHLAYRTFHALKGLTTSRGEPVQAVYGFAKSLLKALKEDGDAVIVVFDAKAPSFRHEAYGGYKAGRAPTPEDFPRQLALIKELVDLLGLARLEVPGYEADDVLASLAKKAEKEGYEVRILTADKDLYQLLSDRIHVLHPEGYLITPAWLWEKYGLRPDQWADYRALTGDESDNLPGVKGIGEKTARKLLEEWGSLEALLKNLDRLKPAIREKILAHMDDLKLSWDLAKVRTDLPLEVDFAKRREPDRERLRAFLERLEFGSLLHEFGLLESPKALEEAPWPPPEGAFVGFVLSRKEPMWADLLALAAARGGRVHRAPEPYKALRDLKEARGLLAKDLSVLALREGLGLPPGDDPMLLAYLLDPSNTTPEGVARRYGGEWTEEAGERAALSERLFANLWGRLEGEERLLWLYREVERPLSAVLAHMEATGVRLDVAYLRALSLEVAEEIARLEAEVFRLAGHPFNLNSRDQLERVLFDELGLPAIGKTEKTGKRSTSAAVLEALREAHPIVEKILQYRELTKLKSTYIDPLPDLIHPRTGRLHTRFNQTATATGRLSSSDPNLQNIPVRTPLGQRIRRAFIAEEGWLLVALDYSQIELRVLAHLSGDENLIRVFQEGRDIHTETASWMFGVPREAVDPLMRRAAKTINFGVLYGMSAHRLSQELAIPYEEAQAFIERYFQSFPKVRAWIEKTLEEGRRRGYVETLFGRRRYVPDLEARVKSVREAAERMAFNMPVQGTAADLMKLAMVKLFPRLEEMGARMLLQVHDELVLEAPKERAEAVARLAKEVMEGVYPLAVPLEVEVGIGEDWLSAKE", "experiment": "Predicted thermostability (half-life) of Taq polymerase in the presence of diols", "experimental": "It is possible that this discrepancy was due to the greatly diminished thermostability of the polymerase at the cutoff concentrations. Based on thermodynamic data, Taq polymerase in the absence of template is predicted to have a half-life of about 8 seconds at 95° C. in the presence of 0.9M 1,2-butanediol and 10 seconds in the presence of 0.6M 1,5-pentanediol. These values will be increased in the presence of template, but will still be very low, especially during the initial cycles when template concentration is limited."}, "[2]": {"biological_target": "T1, Taq polymerase", "experiment": "Taq polymerase activity assays at low temperature in the presence of additives", "conditions": "for Activity of Taq polymerase / Activation: 1.0M 1,5-pentanediol, 0.7M 1,6-hexanediol; for Activity of Taq polymerase: normalized to activity of control at 62° C.; for Activation: change in Taq activity versus control", "experimental": "The measured polymerase activity, then, is in fact a function of two variables—temperature and additive concentration. The plot of measured activity versus temperature and additive concentration is a two-dimensional surface. While a truly comprehensive search for maximal polymerase activity would entail screening this entire surface, the number of experiments required to do so would of course be impractical. Therefore, polymerase activity was measured first as a function of temperature in the absence of additives and at one given, high additive concentration. The temperature that yielded the maximum activity of the polymerase at that concentration was then targeted for concentration gradient studies.\nFirst, polymerase activity assays were carried out in the absence of additives and in the presence of 1.0M 1,5-pentanediol and 0.7M 1,6-hexanediol at temperatures between 46 and 62° C. Next, polymerase activity was studied at 53° C. in the presence of concentration gradients of 1,5-pentanediol, 2-pyrrolidone, sulfolane and tetramethylene sulfoxide. The concentrations tested were: 1,5-pentanediol: 1.0, 1.3, 1.5, 2.25, 3.0 and 3.5M; 2-pyrrolidone: 1.25, 1.5, 2.0 and 3.9M; sulfolane: 1.0, 1.5, 2.0 and 2.75M, tetramethylene sulfoxide: 1.0, 1.5, 2.0 and 3.0M."}, "[3]": {"test_system": "human prostate-specific membrane antigen (PSM) cDNA", "experiment": "Pilot low temperature PCR of PSM with 1,5-pentanediol", "conditions": "for PSM Specificity: densitometric volume of target band as percent of total volume; for PSM Potency: normalized: 1,3-butanediol (95/72° C.) = 1", "experimental": "Amplification reactions were carried out under the following general conditions. Those skilled in the art will appreciate, however, that to the extent that the conditions (set forth in this application) required for specific experiments described in this example were inconsistent with the following general conditions, limited exceptions to the following general conditions were made The general conditions were as follows: 10 Mm Tris-HCl (Ph 8.8), 50 Mm KCl, 1.5 Mm MgCl2, 0.01% (w/v) gelatin, 0.2 Um primers, 0.06 ng/ul template, 0.2 Mm each Dntp, 0.04 U/ul Taq polymerase. The templates used were bovine brain N-WASP cDNA (1518 bp), a 996 by segment of human myeloid leukocyte c-jun cDNA, a 511 by segment of human prostate-specific membrane antigen (PSM) cDNA, and bovine brain glycolipid transfer protein (GTP) cDNA (660 bp). cDNA synthesis was carried out using the FIRST-STRAND® RT-PCR kit from Stratagene on the respective mRNAs purchased from Clontech. All amplification reactions for gene were carried out using a single master batch of cDNA. Taq polymerase and dNTPs were obtained from Stratagene. Primers were obtained from Genosys. Primer melting temperatures (Tms) were calculated using the Genosys oligo calculator program. The sequences of the primers were as follows.\nPolymerase chain reactions for the N-WASP gene were conducted on a ROBOCYCLER® Gradient 40 thermal cycler from Stratagene using 100 ul solutions in 600 ul thin-walled tubes. For expediency, amplification of c-jun, PSM and GTP was carried out in a ROBOCYCLER® Gradient 96 thermal cycler from Stratagene using 50 ul solutions in 200 ul thin-walled tubes. Prior to Taq polymerase addition, a hotstart protocol was carried out that consisted of an initial cycle of 95° C. for 5 minutes (11) to ensure complete first-strand separation, followed by a cycle of 54° C. for 5 minutes. Amplifications were run for 30 cycles. Denaturation was done for 1 minute at the minimum temperatures that yielded discernable amplification: 92° C. for N-WASP and 95° C. for c-jun, PSM and GTP. Extension was done at 72° C. for periods depending on target length: 2 minutes for N-WASP, 1.5 minutes for c-jun and GTP, and 1 minute for PSM. Annealings were carried out either at fixed concentrations of additives using temperature gradients of 38-56° C. for N-WASP and 44-58° C. for the other targets, or at varying concentrations of additives using fixed temperatures of 41° C. for N-WASP, 50° C. for c-jun and PSM, and 54° C. for GTP.\nAmplification products were analyzed by agarose gel electrophoresis on 0.8% agarose gels in which 20 ul reaction products were loaded with 4 ul loading buffer. Gels were stained with ethidium bromide, visualized on a UV transilluminator (Fisher), and documented by photography. Densitometric quantitation of amplification products was carried out using IMAGE SCANNER® and IMAGE MASTER® software from Amersham Pharmacia. Background correction was done using the software's rolling disc method. […] GTP was used as the target because it has the lowest GC content of the three templates used. PCR reactions were carried out in the presence of 1.0 and 1.5M 1,5-pentanediol under the conditions of 85° C. denaturing and 53° C. extension, using a 50° C. annealing temperature. In addition, 1.5M and 2.0M 1,5-pentandediol were tested using an 80° C. denaturing temperature, with identical annealing and extension temperature. Finally, 2.0, 2.5, and 3.0M 1,5-pentanediol were tested in GTP amplification employing a 75° C. denaturation temperature.\nPSM was also tested with 1.0 and 1.5M 1,5-pentanediol using a 85° C. denaturing/50° C. annealing/53° C. extension. The denaturation temperature was then lowered to 80° C., and 2.5M 1,5-pentanediol tested. Amplification of PSM using a 75° C. denaturing temperature was not attempted."}, "[4]": {"conditions": "80/50/53° C., 2.5 M 1,5-pentanediol"}, "[5]": {"conditions": "85/50/53° C., 1.5 M 1,5-pentanediol"}}}
{"smiles": "OCCCCCO", "note": "[1,5-Pentanediol]", "values": [{"measurement": "half-life of Taq polymerase", "setting": "[1]", "value": "~10", "unit": "s"}, {"measurement": "Activation of Taq polymerase", "setting": "[2]; 1.0M, within 49° C.-53° C.", "value": "exceeds 25%"}, {"measurement": "Activity of Taq polymerase", "setting": "[2]; 47° C.", "value": 0.30}, {"measurement": "Activation", "setting": "[2]; 47° C.", "value": "−9", "unit": "%"}, {"measurement": "Activity of Taq polymerase", "setting": "[2]; 48° C.", "value": 0.40}, {"measurement": "Activation", "setting": "[2]; 48° C.", "value": "−3", "unit": "%"}, {"measurement": "Activity of Taq polymerase", "setting": "[2]; 49° C.", "value": 0.54}, {"measurement": "Activation", "setting": "[2]; 49° C.", "value": "+10%"}, {"measurement": "Activity of Taq polymerase", "setting": "[2]; 50° C.", "value": 0.59}, {"measurement": "Activation", "setting": "[2]; 50° C.", "value": "+18%"}, {"measurement": "Activity of Taq polymerase", "setting": "[2]; 51° C.", "value": 0.64}, {"measurement": "Activation", "setting": "[2]; 51° C.", "value": "+21%"}, {"measurement": "Activity of Taq polymerase", "setting": "[2]; 52° C.", "value": 0.69}, {"measurement": "Activation", "setting": "[2]; 52° C.", "value": "+35%"}, {"measurement": "Activity of Taq polymerase", "setting": "[2]; 53° C.", "value": 0.70}, {"measurement": "Taq polymerase activity at 3.5M (in words)", "setting": "[2]; 53° C., 3.5M (36.4%)", "value": "residual activity"}, {"measurement": "Activation", "setting": "[2]; 53° C.", "value": "+23%"}, {"measurement": "effect on Taq polymerase activity at high concentrations (in words)", "setting": "[2]; 53° C., concentration gradients, compared with 2-pyrrolidone, sulfolane and tetramethylene sulfoxide", "value": "compromises polymerase activity to the least extent"}, {"measurement": "Activity of Taq polymerase", "setting": "[2]; 54° C.", "value": 0.63}, {"measurement": "Activation", "setting": "[2]; 54° C.", "value": "+3%"}, {"measurement": "Activity of Taq polymerase", "setting": "[2]; 55° C.", "value": 0.57}, {"measurement": "Activation", "setting": "[2]; 55° C.", "value": "−19", "unit": "%"}, {"measurement": "PSM Specificity", "setting": "[3]; [4]", "value": 92, "unit": "%"}, {"measurement": "PSM Potency", "setting": "[3]; [4]", "value": 1.40}, {"measurement": "PSM Potency", "setting": "[3]; 80/50/53° C., 2.5 M 1,5-pentanediol, listed as 1,5-pentanediol", "value": "Substantial amplification"}, {"measurement": "PSM Potency", "setting": "[3]; 85/50/53° C., 1.0 M 1,5-pentanediol", "value": 0.00}, {"measurement": "PSM Potency", "setting": "[3]; 85/50/53° C., 1.0 M 1,5-pentanediol, listed as 1,5-pentanediol", "value": "did not amplify the target sequence"}, {"measurement": "PSM Specificity", "setting": "[3]; [5]", "value": 86, "unit": "%"}, {"measurement": "PSM Potency", "setting": "[3]; [5]", "value": 2.08}, {"measurement": "PSM Potency", "setting": "[3]; 85/50/53° C., 1.5 M 1,5-pentanediol, listed as 1,5-pentanediol", "value": "successful"}]}
